Tests used:
Format in all cases: in vivo, BALB/c mice
CT26 cells [1] = assay: TLR9 agonist and anti-IDO1 inhibitor combination, CT26 treated tumors and systemic lung metastases (Example 9); settings: compared with PBS group (nodules infiltrating most of the lung tissues); FIG. 16 legend
Method: BALB/c mice were implanted s.c with 1×10^7 CT26 cells on right flank. The mice were than i.v injected with 3×10^6 CT26 cells to establish lung metastases. Treatment was initiated on day 4. 2.5 mg/kg IMO-4 was administered intratumorally into solid tumors on the right flank and 75 mg/kg anti-IDO1 inhibitor was administered orally (p.o.). IMO-4 and anti-IDO1 inhibitor were given either alone or co-administered on days 4, 5, 7, and 8. Anti-IDO1 was administered twice. Samples from control, IMO-4, anti-IDO1 inhibitor or IMO-4 and anti-IDO1 inhibitor treated tumor-bearing mice were collected. FIGS. 14 through 17 show the effects of IMO-4 and anti-IDO1 inhibitor on directly treated tumors and systemic lung metastasis.

A20 lymphoma = assay: Intratumoral TLR9 agonist in A20 lymphoma model, treated and distant tumors (Example 3)
A20 cells = assay: Intratumoral vs subcutaneous TLR9 agonist in A20 lymphoma model (Example 2)
Method: BALB/c mice (n=10) were implanted s.c with 3×10^6 A20 cells on the right flank. Treatment was initiated on day 8 with either intratumoral (i.t.) or subcutaneous (s.c.) injection of 2.5 mg/kg IMO-4. IMO-4 was given on days 8, 10, 12 and 14. Samples from placebo (PBS) control and IMO-4 treated tumor-bearing mice were collected on day 21 after tumor implantation. […] Intratumoral IMO-4 also modulated tumor checkpoint expression compared to subcutaneous administration thereby sensitizing the tumor microenvironment for combination with one or more checkpoint inhibitors (data not shown).

CT26 cells [2] = assay: Intratumoral TLR9 agonist in CT26 colon carcinoma model, treated and distant tumors (Example 4)
Method: (§1) BALB/c mice (n=9) were implanted s.c with 2×10^6 CT26 cells on the right and left flank. Treatment was initiated on day 7 with intratumoral injection in the left flank with 2.5 mg/kg IMO-4. IMO-4 was given on days 7, 9, 11, 13 and 15. Samples from placebo (PBS) control and IMO-4 treated tumor-bearing mice were collected on day 27 after tumor implantation. […] Intratumoral IMO-4 also modulated tumor checkpoint expression thereby sensitizing the tumor microenvironment for combination with one or more checkpoint inhibitors (data not shown).

B16 cells = assay: Intratumoral TLR9 agonist in B16 melanoma model, treated and distant tumors (Example 5)
Method: as §1, with “s.c with 1×10^6 B16 cells on” for “s.c with 2×10^6 CT26 cells on”, “flank with of 2.5 mg/kg” for “flank with 2.5 mg/kg”, “on day 22 after tumor” for “on day 27 after tumor”

[3] = system: murine colon carcinoma CT26 cells; assay: TLR9 agonist and anti-PD-1 mAb combination, CT26 treated and distant tumors (Example 7); settings: FIG. 11
Method: BALB/c mice (n=8 per group) were implanted s.c with 1×10^7 murine colon carcinoma CT26 cells in right flank (Tumor 1) and left flank (Tumor 2). Treatment was initiated on day 7 when tumor volume on reaches 200 to 300 mm^3. 2.5 mg/kg IMO-4 (50 μg in 100 μl PBS) was i.t injected at right tumor nodules and anti-PD-1 mAb (10 mg/kg, 200 μg/mouse) was administered by i.p injection either alone or co-administered on days 7, 8, 11 and 12 for total 4 times. Tumor nodules were collected at day 14.

5-TCGAACG1TTCG1-X-G1CTTG1CAAG1CT-5′ (chain 1 TCGAACGTTCG; chain 2 TCGAACGTTCG; two copies joined 3'-3' by glycerol linker; G1 modified; modified_base (3)..(3) 2′-deoxy-7-deazaguanosine; modified_base (7)..(7) 2′-deoxy-7-deazaguanosine; modified_base (11)..(11) 2′-deoxy-7-deazaguanosine) [IMO-4]
tumor nodules in lung tissues (CT26 cells [1]): tumor nodules are smaller than that of the PBS group | antitumor activity, treated and distant tumor nodules (A20 lymphoma; intratumoral in left flank, 2.5 mg/kg on days 8, 10, 12, 14, FIG. 4): potent antitumor activity in both treated and distant tumor nodules | tumor checkpoint expression (A20 lymphoma; intratumoral, data not shown): modulated | antitumor activity (A20 cells; intratumoral 2.5 mg/kg on days 8, 10, 12, 14, FIG. 3): potent antitumor activity | CD3+ TIL infiltration (A20 cells; intratumoral 2.5 mg/kg, samples day 21, FIG. 3): induced | tumor checkpoint expression (A20 cells; intratumoral compared to subcutaneous administration, data not shown): modulated | antitumor activity, treated and distant tumor nodules (CT26 cells [2]; intratumoral in left flank, 2.5 mg/kg on days 7, 9, 11, 13, 15, FIG. 5): potent antitumor activity in both treated and distant tumor nodules | tumor checkpoint expression (CT26 cells [2]; intratumoral, data not shown): modulated | antitumor activity, treated and distant tumor nodules (B16 cells; intratumoral in left flank, 2.5 mg/kg on days 7, 9, 11, 13, 15, FIG. 6): potent antitumor activity in both treated and distant tumor nodules | tumor checkpoint expression (B16 cells; intratumoral, data not shown): modulated | CD3+ cells in tumor tissue ([3]; compared with few CD3+ cells in PBS (vehicle) mice): a large number of CD+3 cells | T lymphocyte infiltration into tumor tissues ([3]; tumor nodules collected day 14): increases

From patent publication US20170274004A1, “TREATMENT OF CANCER USING TLR9 AGONIST WITH CHECKPOINT INHIBITORS” (IDERA PHARMACEUTICALS, INC., priority 2014, published 2017)
